Assay results reported in patent US20230201179A1, “AGENT FOR TREATING CONTRAST-INDUCED ACUTE KIDNEY INJURY” (APTABIO THERAPEUTICS INC., priority 2020, published 2023).

Tests used:
[1] = test system: contrast media-induced acute kidney injury; assay: Efficacy evaluation in animal model with contrast media-induced acute kidney injury in mice; format: in vivo, C57BL/6 mice
Method: As the experimental animals, 6-week-old male C57BL/6 mice were purchased from LionBio. All mice were maintained under standard conditions. After breeding for about 2 weeks, at 8 weeks of age, Compound 1 (3-phenyl-4-n-propyl-1-(pyridin-2-yl)-1H-pyrazol-5-ol hydrochloride) was orally administered at a dose of 60 mg/kg daily for 5 days before administration of contrast media. In order to induce acute kidney injury, after a fast of 16 hours, the anti-inflammatory analgesic indomethacin (10 mg/kg) and the NO blocker N-nitro-L-arginine (L-NAME, 10 mg/kg) were intraperitoneally administered 15 minutes before administration of contrast media, and contrast media (Iohexol, 4000 mg iodine/kg) was intraperitoneally administered 15 minutes later. After 24 hours of supplying food and water, the animal test substances were classified into three groups: vehicle administered group (Control) and contrast media administered group (Iohexol), and contrast media and Compound 1 simultaneously administered group (Iohexol+Compound 1). After completion of the test, the animals were anesthetized, kidney tissue was enucleated for each individual, and blood was taken for examination. The tissues were fixed in 10% buffered neutral formalin solution. The fixed tissues were sliced to a certain thickness and paraffin-embedded through a general tissue processing process to produce a tissue section of 4 to 5 μm, and then hematoxylin & eosin staining (H&E stain), which is a general staining method, was performed to observe histopathologically the extent of kidney injury in the region of the renal cortex and renal medulla, and F4/80 staining, Tunel staining, DHE staining and nitrotyrosine staining were performed to observe the effects of inflammation and oxidative stress in the kidney injury tissue. Blood was taken and centrifuged at 3000 rpm, 4° C. for 10 minutes, and the upper layer of serum was taken and the level of blood urea nitrogen (BUN) and creatinine was measured using an automatic blood biochemical analyzer (AU480, Beckman Coulter, USA) to confirm the indicator of kidney injury. Histologic evaluation of the degree of kidney injury was calculated as 0 point for no renal tubular injury, 1 point for mild injury, 2 points for intratubular vacuolar lesions less than 25-60%, and 3 points for intratubular vacuolar lesions of 60% or more, thereby formulating the average value of renal tubular injury under the microscope field of view.

[2] = test system: reactive oxygen species; assay: Inhibitory effect on the formation of reactive oxygen species
[3] = 60 mg/kg orally once a day for 5 days before Iohexol, vs contrast media-treated group

## CCCc1c(-c2ccccc2)nn(-c2ccccn2)c1O.Cl [Compound 1, 3-phenyl-4-propyl-1-(pyridin-2-yl)-1H-pyrazol-5-ol hydrochloride]
[1]; 60 mg/kg orally once a day for 5 days before Iohexol 4000 mg iodine/kg i.p., vs contrast media-treated group
  kidney injury of the renal medulla and the renal cortex (H&E histopathology, FIG. 1): remarkably reduced
[1]; 60 mg/kg orally once a day for 5 days before Iohexol, score 0-3, renal biopsy
  renal tubular injury score (FIG. 5): remarkably reduced
[1]; [3]
  activated oxygen (reactive oxygen species, DHE staining) in the kidney tissue (FIG. 8): remarkably reduced
  concentration of BUN (serum, FIG. 2): decreased
  concentration of KIM-1 in the urine (FIG. 4): decreased
  concentration of NGAL in the urine (FIG. 4): decreased
  concentration of creatinine (Serum Cr, FIG. 3): decreased
  concentration of microproteinuria (albumin) in the urine (FIG. 4): decreased
  infiltration of inflammatory cells (macrophages, F4/80-positive cells) within the kidney tissue (FIG. 7): remarkably reduced
  inflammation (MCP-1 gene expression) in the kidney tissue (FIG. 6): remarkably reduced
  nitrotyrosine in the kidney tissue (FIG. 9): remarkably reduced

## CCCCc1c(-c2ccccc2)nn(-c2ccccn2)c1O [3-phenyl-4-butyl-1-(pyridin-2-yl)-1H-pyrazol-5-ol]
[2]
  inhibitory effect on the formation of reactive oxygen species: inhibitory effect

## CCCc1c(-c2ccccc2)nn(-c2ccccn2)c1O [3-phenyl-4-propyl-1-(pyridin-2-yl)-1H-pyrazol-5-ol]
[2]
  inhibitory effect on the formation of reactive oxygen species: inhibitory effect

## CCc1c(-c2ccccc2)nn(-c2ccccn2)c1O [3-phenyl-4-ethyl-1-(pyridin-2-yl)-1H-pyrazol-5-ol]
[2]
  inhibitory effect on the formation of reactive oxygen species: inhibitory effect
